Measured values: patent US9017974B2, “Method for the synthesis of porphyrin-phospholipid conjugates” (priority 2011, dated 2015)

Experiments:
Format in all cases: biochemical
[1] = target: Lipase from Thermomyces lanuginosus (LTL) (Thermomyces lanuginosus, UniProt O59952); details: pH 8
[2] = target: T1, Lipase from Rhizomucor miehei (Rhizomucor miehei, UniProt P19515); details: 37 C, 3 hours, 0.025% Triton X100, 5 mM Tris pH 8, HPLC/MS
T1 sequence (P19515 95-363): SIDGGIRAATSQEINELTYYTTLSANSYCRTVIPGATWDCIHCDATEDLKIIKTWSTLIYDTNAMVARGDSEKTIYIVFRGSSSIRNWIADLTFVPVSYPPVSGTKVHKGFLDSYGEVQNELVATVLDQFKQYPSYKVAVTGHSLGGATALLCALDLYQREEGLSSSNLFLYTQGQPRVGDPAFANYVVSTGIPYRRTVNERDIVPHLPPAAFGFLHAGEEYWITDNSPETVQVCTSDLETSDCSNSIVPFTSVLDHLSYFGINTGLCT

[3] = target: Lipase from Pseudomonas cepacia (Burkholderia cepacia, UniProt P22088); details: 37 C, 3 hours, 0.025% Triton X100, 5 mM Tris pH 8, HPLC/MS
Sequence of Lipase from Pseudomonas cepacia (P22088 45-364): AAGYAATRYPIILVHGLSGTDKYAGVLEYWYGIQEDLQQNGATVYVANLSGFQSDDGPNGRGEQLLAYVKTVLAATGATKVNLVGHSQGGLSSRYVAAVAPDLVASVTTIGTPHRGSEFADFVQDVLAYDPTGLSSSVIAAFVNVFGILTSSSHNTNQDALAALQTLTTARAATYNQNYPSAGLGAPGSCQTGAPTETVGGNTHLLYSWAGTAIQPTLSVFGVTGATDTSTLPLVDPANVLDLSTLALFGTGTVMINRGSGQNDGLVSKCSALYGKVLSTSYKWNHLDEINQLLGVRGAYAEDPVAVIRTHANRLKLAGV

Sequence of Lipase from Thermomyces lanuginosus (LTL) (O59952 23-291): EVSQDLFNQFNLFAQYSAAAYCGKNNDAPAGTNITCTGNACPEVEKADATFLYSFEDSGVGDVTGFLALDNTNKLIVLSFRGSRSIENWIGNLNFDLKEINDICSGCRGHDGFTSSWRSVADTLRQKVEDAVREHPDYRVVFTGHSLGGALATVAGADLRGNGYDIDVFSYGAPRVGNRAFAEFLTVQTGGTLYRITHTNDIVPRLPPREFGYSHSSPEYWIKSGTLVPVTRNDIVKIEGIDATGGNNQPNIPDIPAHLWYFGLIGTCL

C=Cc1c(C)c2cc3nc(c4c5[nH]c(cc6nc(cc1[nH]2)C(C)=C6CC)c(C)c5C(=O)C4)[C@@H](CCC(=O)O[C@H](COC(=O)CCCCCCCCCCCCCCC)COP(=O)([O-])OCC[N+](C)(C)C)[C@@H]3C [sn-2 pyro-lipid]
cleavage of pyro-lipid regioisomer by LTL [1]: selectively cleaved
cleavage of pyro-lipid regioisomer by lipase from Rhizomucor miehei [2]: preferentially cleaved
cleavage of pyro-lipid regioisomer by lipase from Pseudomonas cepacia [3]: preferentially cleaved
